# Results from patent publication US8257478B2, “Use of marine fungus originated compounds as antifouling agents” (The Hong Kong University of Science and Technology, priority 2004, dated 2012).
# Experiments:
# Staphylococcus aureus = test: agar disc diffusion assay, inhibition zone; assay type: cell-based; settings: 50 μg/disc, 30° C., 24 h, read-out: Inhibition Zone Width
# Description: (§1) Antibacterial activity was tested against bacteria using an agar disc diffusion assay method. Sterile paper discs (6 mm i.d.) impregnated with the substance under test at a concentration of 50 μg disc^−1 were applied onto the surface of an agar plate (plastic Petri dish) inoculated with one strain with sterile forceps and gently pressed down to ensure good contact with the surface. Blank discs treated with the same volume of DMSO were added. A control disc, containing streptomycin was used. After the application of discs, the plates were incubated at 30° C. for 24 h, and then the size of the inhibition zone was measured.
# Ruegeria sp. = test: agar disc diffusion assay, inhibition zone; assay type: cell-based; settings: 50 μg/disc, 30° C., 24 h; read-out: Inhibition Zone Width
# Description: as §1
# Vibrio furnissii = test: agar disc diffusion assay, inhibition zone; assay type: cell-based; settings: 100 μg (streptomycin control), 30° C., 24 h, read-out: Inhibition Zone Width
# Description: as §1, with “using” for “using an”, “assay.” for “assay method.”, “disc” for “disc,”, “h. The” for “h, and then the”, “measured. The results are presented in Table 8 and Table 9 for Cyclo (D)-Pro-(D)-Phe and b3-methyl-N-(2-phenylethyl)butanamide, respectively.” for “measured.”
# Vibrio alginolyticus = test: agar disc diffusion assay, inhibition zone; assay type: cell-based; settings: 100 μg (streptomycin control), 30° C., 24 h, read-out: Inhibition Zone Width
# Description: as §1, with “using” for “using an”, “assay.” for “assay method.”, “disc” for “disc,”, “h. The” for “h, and then the”, “measured. The results are presented in Table 8 and Table 9 for Cyclo (D)-Pro-(D)-Phe and b3-methyl-N-(2-phenylethyl)butanamide, respectively.” for “measured.”
# Vibrio vulnificus = test: agar disc diffusion assay, inhibition zone; assay type: cell-based; settings: 100 μg (streptomycin control), 30° C., 24 h, read-out: Inhibition Zone Width
# Description: as §1, with “using” for “using an”, “assay.” for “assay method.”, “disc” for “disc,”, “h. The” for “h, and then the”, “measured. The results are presented in Table 8 and Table 9 for Cyclo (D)-Pro-(D)-Phe and b3-methyl-N-(2-phenylethyl)butanamide, respectively.” for “measured.”
# Rhodovulum sp. = test: agar disc diffusion assay, inhibition zone; assay type: cell-based; settings: 100 μg (streptomycin control), 30° C., 24 h; read-out: Inhibition Zone Width
# Description: as §1, with “using” for “using an”, “assay.” for “assay method.”, “disc” for “disc,”, “h. The” for “h, and then the”, “measured. The results are presented in Table 8 and Table 9 for Cyclo (D)-Pro-(D)-Phe and b3-methyl-N-(2-phenylethyl)butanamide, respectively.” for “measured.”
# Vibrio halioticoli = test: agar disc diffusion assay, inhibition zone; assay type: cell-based; settings: 100 μg (streptomycin control), 30° C., 24 h, read-out: Inhibition Zone Width
# Description: as §1, with “using” for “using an”, “assay.” for “assay method.”, “disc” for “disc,”, “h. The” for “h, and then the”, “measured. The results are presented in Table 8 and Table 9 for Cyclo (D)-Pro-(D)-Phe and b3-methyl-N-(2-phenylethyl)butanamide, respectively.” for “measured.”
# Loktanella hongkongensis = test: agar disc diffusion assay, inhibition zone; assay type: cell-based; settings: Limimaricola hongkongensis; 100 μg (streptomycin control), 30° C., 24 h; read-out: Inhibition Zone Width
# Description: as §1, with “using” for “using an”, “assay.” for “assay method.”, “disc” for “disc,”, “h. The” for “h, and then the”, “measured. The results are presented in Table 8 and Table 9 for Cyclo (D)-Pro-(D)-Phe and b3-methyl-N-(2-phenylethyl)butanamide, respectively.” for “measured.”
# Vibrio harveyi = test: agar disc diffusion assay, inhibition zone; assay type: cell-based; settings: 30° C., 24 h, read-out: Inhibition Zone Width
# Description: as §1
# as §1, with “using” for “using an”, “assay.” for “assay method.”, “disc” for “disc,”, “h. The” for “h, and then the”, “measured. The results are presented in Table 8 and Table 9 for Cyclo (D)-Pro-(D)-Phe and b3-methyl-N-(2-phenylethyl)butanamide, respectively.” for “measured.”
# Vibrio fluvialis = test: agar disc diffusion assay, inhibition zone; assay type: cell-based; settings: 30° C., 24 h, read-out: Inhibition Zone Width
# Description: as §1
# as §1, with “using” for “using an”, “assay.” for “assay method.”, “disc” for “disc,”, “h. The” for “h, and then the”, “measured. The results are presented in Table 8 and Table 9 for Cyclo (D)-Pro-(D)-Phe and b3-methyl-N-(2-phenylethyl)butanamide, respectively.” for “measured.”
# Moraxella phenylpyruvica = test: agar disc diffusion assay, inhibition zone; assay type: cell-based; settings: Psychrobacter phenylpyruvicus, 30° C., 24 h, read-out: Inhibition Zone Width
# Description: as §1
# as §1, with “using” for “using an”, “assay.” for “assay method.”, “disc” for “disc,”, “h. The” for “h, and then the”, “measured. The results are presented in Table 8 and Table 9 for Cyclo (D)-Pro-(D)-Phe and b3-methyl-N-(2-phenylethyl)butanamide, respectively.” for “measured.”
# Vibrio sp. (NAP-4) = test: agar disc diffusion assay, inhibition zone; assay type: cell-based; settings: 30° C., 24 h, read-out: Inhibition Zone Width
# Description: as §1
# as §1, with “using” for “using an”, “assay.” for “assay method.”, “disc” for “disc,”, “h. The” for “h, and then the”, “measured. The results are presented in Table 8 and Table 9 for Cyclo (D)-Pro-(D)-Phe and b3-methyl-N-(2-phenylethyl)butanamide, respectively.” for “measured.”
# [1] = system: Pseudoalteromonas piscida; test: agar disc diffusion assay, inhibition zone; assay type: cell-based; settings: 30° C., 24 h, read-out: Inhibition Zone Width
# Description: as §1
# as §1, with “using” for “using an”, “assay.” for “assay method.”, “disc” for “disc,”, “h. The” for “h, and then the”, “measured. The results are presented in Table 8 and Table 9 for Cyclo (D)-Pro-(D)-Phe and b3-methyl-N-(2-phenylethyl)butanamide, respectively.” for “measured.”
# [2] = system: Staphylococcus haemolyticus; test: agar disc diffusion assay, inhibition zone; assay type: cell-based; settings: 30° C., 24 h, read-out: Inhibition Zone Width
# Description: as §1
# as §1, with “using” for “using an”, “assay.” for “assay method.”, “disc” for “disc,”, “h. The” for “h, and then the”, “measured. The results are presented in Table 8 and Table 9 for Cyclo (D)-Pro-(D)-Phe and b3-methyl-N-(2-phenylethyl)butanamide, respectively.” for “measured.”
# Pseudoalteromonas sp. = test: agar disc diffusion assay, inhibition zone; assay type: cell-based; settings: 30° C., 24 h, read-out: Inhibition Zone Width
# Description: as §1
# as §1, with “using” for “using an”, “assay.” for “assay method.”, “disc” for “disc,”, “h. The” for “h, and then the”, “measured. The results are presented in Table 8 and Table 9 for Cyclo (D)-Pro-(D)-Phe and b3-methyl-N-(2-phenylethyl)butanamide, respectively.” for “measured.”
# Micrococcus luteus = test: agar disc diffusion assay, inhibition zone; assay type: cell-based; settings: 30° C., 24 h, read-out: Inhibition Zone Width
# Description: as §1
# as §1, with “using” for “using an”, “assay.” for “assay method.”, “disc” for “disc,”, “h. The” for “h, and then the”, “measured. The results are presented in Table 8 and Table 9 for Cyclo (D)-Pro-(D)-Phe and b3-methyl-N-(2-phenylethyl)butanamide, respectively.” for “measured.”
# Shewanella algae = test: agar disc diffusion assay, inhibition zone; assay type: cell-based; settings: 30° C., 24 h, read-out: Inhibition Zone Width
# Description: as §1
# as §1, with “using” for “using an”, “assay.” for “assay method.”, “disc” for “disc,”, “h. The” for “h, and then the”, “measured. The results are presented in Table 8 and Table 9 for Cyclo (D)-Pro-(D)-Phe and b3-methyl-N-(2-phenylethyl)butanamide, respectively.” for “measured.”
# [3] = system: Balanus amphitrite larvae; test: in vivo; settings: in vivo
# Description: (§2) The larval bioassay was conducted according to Rittschof et al. (1994), which is incorporated by reference herein in its entirety.
# Toxicity of cyclo (D)-Pro-(D)-Phe was determined using 24-well polystyrene plates. Pure compound was dissolved in DMSO and added to autoclaved FSW to form different concentrations. Competent Balanus amphitrites larvae (10±2 individuals) were added to each well with 1 ml testing solution in 5 replicates. The wells containing FSW served as the control. The 24-well plates were incubated at 30° C. for 24 h. The percent mortality was determined by counting the number of dead larvae under a dissecting microscope.
# (§3) The assay was conducted according to Rittschof et al. (1994). Data plotted are means+SD of five replicates.
# [4] = system: barnacle Balanus amphitrite larvae; test: anti-larval settlement bioassay in 24-well plates; assay type: in vivo; settings: tested range 60-140 μg ml^−1, 24 h
# Description: Anti-larval settlement activity of 3-chloro-2,5-dihydroxy benzyl alcohol (compound 1) was conducted using 24-well polystyrene plates. Pure compound was dissolved in DMSO and added to autoclaved FSW at different concentrations. Competent Balanus amphitrites larvae (10±2 individuals) were added to each well with 1 ml testing solution in 5 replicates, and wells containing FSW (filtered seawater) served as control. The 24-well plates were incubated at 30° C. for 24 h. The percent settlement was determined by counting the number of settled larvae under a dissecting microscope. In all bioassays, FSW served as the control. Statistical calculations were performed with the SPSS (Statistical Package for the Social Sciences) software package, Version 11.
# as §2, §3
# For determining anti-larval settlement activity, adult Balanus amphitrile (Darwin) were collected from the intertidal zone in Hong Kong (22°19′N, 114°16′E). Nauplii obtained from several adults were mass-reared to cyprid stage at a density of 2 larvae ml^−1 in 0.22-μm-filtered seawater with 30 ppt salinity (FSW) using Chaetoceros gracilis Schutt as food and a rearing temperature of 28° C. Newly transformed cyprids were used for the experiment.
# Anti-larval settlement activity of succinic acid against B. amphitrite was determined using 24-well polystyrene plates. Pure compound was dissolved in autoclaved FSW ranged from 60-140 μg ml^−1 for B. amphitrite. Competent larvae (15±2 individuals) were added to each well with 1 ml testing solution in 5 replicates, and wells containing FSW served as the control. The 24-well plates were incubated at 30° C. for 24 h. The percent larval settlement was determined by counting the number of settled individuals under a dissecting microscope and expressed as a proportion of the total number of larvae in the well.
smiles,measurement,setting,value
"[H]/N=C(/N)N[C@H]1[C@H](O)[C@@H](O)[C@H](O[C@@H]2O[C@@H](C)[C@](O)(C=O)[C@H]2O[C@@H]2O[C@@H](CO)[C@H](O)[C@@H](O)[C@@H]2NC)[C@@H](N/C(N)=N\[H])[C@@H]1O [Streptomycin, reference compound]",zone of inhibition at 50 µg/disc,Staphylococcus aureus,3.5 mm
same,zone of inhibition at 50 µg/disc,Ruegeria sp.,4.5 mm
same,zone of inhibition at 100 µg/disc,Vibrio furnissii,2.3 ± 0.6 mm
same,zone of inhibition at 100 µg/disc,Vibrio alginolyticus,6.7 ± 2.3 mm
same,zone of inhibition at 100 µg/disc,Vibrio vulnificus,3.3 ± 0.8 mm
same,zone of inhibition at 100 µg/disc,Rhodovulum sp.,5.3 ± 1.2 mm
same,zone of inhibition at 100 µg/disc,Vibrio halioticoli,4.3 ± 0.6 mm
same,zone of inhibition at 100 µg/disc,Loktanella hongkongensis,4 mm
same,zone of inhibition at 50 µg/disc,Vibrio harveyi; 50 μg/disc,3 mm
same,zone of inhibition at 100 µg/disc,Vibrio harveyi; 100 μg (streptomycin control),6 mm
same,zone of inhibition at 50 µg/disc,Vibrio fluvialis; 50 μg/disc,4 mm
same,zone of inhibition at 100 µg/disc,Vibrio fluvialis; 100 μg (streptomycin control),3 mm
same,zone of inhibition at 50 µg/disc,Moraxella phenylpyruvica; 50 μg/disc,0 mm
same,zone of inhibition at 100 µg/disc,Moraxella phenylpyruvica; 100 μg (streptomycin control),9 mm
same,zone of inhibition at 50 µg/disc,Vibrio sp. (NAP-4); 50 μg/disc,4 mm
same,zone of inhibition at 100 µg/disc,Vibrio sp. (NAP-4); 100 μg (streptomycin control),5.7 ± 0.6 mm
same,zone of inhibition at 50 µg/disc,[1]; 50 μg/disc,5 mm
same,zone of inhibition at 100 µg/disc,[1]; 100 μg (streptomycin control),3 ± 1 mm
same,zone of inhibition at 50 µg/disc,[2]; 50 μg/disc,6 mm
same,zone of inhibition at 100 µg/disc,[2]; 100 μg (streptomycin control),3 mm
same,zone of inhibition at 50 µg/disc,Pseudoalteromonas sp.; 50 μg/disc,6 mm
same,zone of inhibition at 100 µg/disc,Pseudoalteromonas sp.; 100 μg (streptomycin control),4 ± 1 mm
same,zone of inhibition at 50 µg/disc,Micrococcus luteus; 50 μg/disc,6.5 mm
same,zone of inhibition at 100 µg/disc,Micrococcus luteus; 100 μg (streptomycin control),6.7 ± 0.6 mm
same,zone of inhibition at 50 µg/disc,Shewanella algae; 50 μg/disc,7 mm
same,zone of inhibition at 100 µg/disc,Shewanella algae; 100 μg (streptomycin control),6.3 ± 1.2 mm
"O=C(O)CCC(=O)O [Compound 4, succinic acid]",therapeutic ratio LC50/EC50,[3],94.1
same,concentration showing anti-larval settlement effects,[4],110 µg/mL
